Results taken from paper PMC11760775 (bioRxiv, 2025).
Entries after “also recorded” stand apart in the source; their conditions may differ.

How the values were obtained:
mice [1] = experiment: Tail flick acute heat nociception assay, reversal of morphine analgesia; assay type: in vivo, mouse; conditions: morphine 20mg/kg i.p., 50°C water bath
mice [2] = experiment: Conditioned place aversion in morphine tolerant mice; assay type: in vivo, mouse

CN1CC[C@]23c4c5ccc(O)c4O[C@H]2[C@@H](O)C=C[C@H]3[C@H]1C5 [morphine]
Tail flick latency (mice [1]): significantly increased

C=CCN1CC[C@]23c4c5ccc(O)c4O[C@H]2C(=O)CC[C@@]3(O)[C@H]1C5 [naloxone]
CPA score (Test - Pretest) (mice [2]): avoided the treatment compartment to a greater extent | Time spent in antagonist-paired (withdrawal precipitation) chamber (mice [2]; after conditioning versus pre-treatment): marked decrease; also recorded: significantly less time
